Activity calls are given as the source filed them. No cut-off for these calls is given here.

Series [1] can be described thus: Antagonist activity at rat alpha1beta1gamma1delta1 nAChR expressed in Xenopus laevis oocytes assessed as inhibition of ACh puff-induced maximum channel current amplitude using UV LED light irradiated compound measured at holding potential of -60 mV by two-electrode voltage clamp technique. The format is cell-based. The conditions noted are these: oocyte.
Series [2] concerns the target T1, Neuronal acetylcholine receptor; alpha4/beta2 (Homo sapiens, UniProt P17787+P43681). As to the kind of experiment: Displacement of [125I] alpha bungarotoxin from human neuronal alpha4beta2 nAChR expressed in human SH-SY5Y cell membrane at 10 uM measured after 120 mins by Topcount scintillation counting method. The format is cell membranes. Background: Loss of bound radioactivity is the signal in a displacement assay; it reports binding, not function.

The next series deals with RAW264.7. As to the kind of experiment: Cytotoxicity against mouse RAW264.7 cells assessed as cell viability at 10 uM measured after 24 hrs by MTT assay. The format is cell-based. The conditions noted are these: raw264.7, 24 h.
In series [3] the target is T2, Neuronal acetylcholine receptor subunit alpha-7 (Homo sapiens, UniProt P36544). As to the kind of experiment: Displacement of [125I] alpha bungarotoxin from human neuronal alpha7 nAChR expressed in human SH-SY5Y cell membrane measured after 120 mins by Topcount scintillation counting method. It counts as cell membranes.
T2 sequence (P36544 whole entry): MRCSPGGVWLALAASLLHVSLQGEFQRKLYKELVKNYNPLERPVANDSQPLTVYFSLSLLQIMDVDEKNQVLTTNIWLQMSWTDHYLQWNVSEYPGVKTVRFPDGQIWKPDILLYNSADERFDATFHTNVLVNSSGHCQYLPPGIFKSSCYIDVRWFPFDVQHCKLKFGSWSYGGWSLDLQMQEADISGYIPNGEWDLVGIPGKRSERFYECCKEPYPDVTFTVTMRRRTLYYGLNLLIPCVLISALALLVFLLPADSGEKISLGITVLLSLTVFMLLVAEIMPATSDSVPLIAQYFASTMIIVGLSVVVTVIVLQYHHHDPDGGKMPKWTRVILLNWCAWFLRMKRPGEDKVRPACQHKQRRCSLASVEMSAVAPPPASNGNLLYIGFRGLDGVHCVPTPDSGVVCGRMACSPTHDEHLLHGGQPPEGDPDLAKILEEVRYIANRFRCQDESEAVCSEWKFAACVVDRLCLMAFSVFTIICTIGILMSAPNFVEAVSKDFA
Series [4] can be described thus: Thermodynamic solubility of the compound in aqueous phosphate buffer at pH 7.4 measured after 24 hrs by UV-spectra reader analysis. To be noted: read-out: Therm_solubility. It counts as physicochemical.
Series [5] is described as follows: Antagonist activity at rat alpha1beta1gamma1delta1 nAChR expressed in Xenopus laevis oocytes assessed as inhibition of ACh puff-induced maximum channel current amplitude measured at holding potential of -60 mV by two-electrode voltage clamp technique. It counts as cell-based. The conditions noted are these: oocyte. A general note: Two-electrode voltage clamp is typically applied to oocytes expressing channels or transporters.

The target in series [6] is T1, Neuronal acetylcholine receptor; alpha4/beta2. The series can be described thus: Displacement of [125I] alpha bungarotoxin from human neuronal alpha4beta2 nAChR expressed in human SH-SY5Y cell membrane measured after 120 mins by Topcount scintillation counting method. It counts as cell membranes.
Series [7] can be described thus: Effective permeability of compound measured after 240 mins by PAMPA-BBB assay based UV/Vis spectrophotometer analysis. It counts as ADME. The conditions noted are these: read-out: Peff.
A short description of series [8]: Displacement of [125I] alpha bungarotoxin from human muscle type nAChR expressed in human TE-671 cell membrane measured after 120 mins by Topcount scintillation counting method. It counts as cell membranes.
Series [9] relates to Oocyte. As to the kind of experiment: Antagonist activity at rat alpha1beta1gamma1delta1 nAChR expressed in Xenopus laevis oocytes assessed as inhibition of ACh puff-induced maximum channel current amplitude at 0.1 to 5 uM measured following irradiation with UV LED light irradiation at holding potential of -60 mV by two-electrode voltage clamp technique. The format is cell-based. To be noted: dose 0.1-5 µM.

The test system of series [10] is Oocyte. The series can be described thus: Antagonist activity at rat alpha1beta1gamma1delta1 nAChR expressed in Xenopus laevis oocytes assessed as inhibition of constant UV LED light irradiation-induced channel activation by measuring faster decay of Ach-induced channel current amplitude at 0.5 uM using blue LED light irradiated compound measured at holding potential of -60 mV by two-electrode voltage clamp technique. The conditions noted are these: filed as antagonist. The format is cell-based.

Series [11] is filed under the species Homo sapiens. The series can be described thus: Selectivity index, ratio of Ki for human neuronal alpha4beta2 nAChR expressed in human SH-SY5Y cell membrane to Ki for human muscle type nAChR expressed in human TE-671 cell membrane. It counts as cell-based.
The species entered for series [12] is Homo sapiens. As to the kind of experiment: Selectivity index, ratio of Ki for human neuronal alpha7 nAChR expressed in human SH-SY5Y cell membrane to Ki for human muscle type nAChR expressed in human TE-671 cell membrane. The format is cell-based.
In series [13] the test system is Oocyte. As to the kind of experiment: Antagonist activity at rat alpha1beta1gamma1delta1 nAChR expressed in Xenopus laevis oocytes assessed as inhibition of ACh puff-induced maximum channel current amplitude at 5 uM measured at holding potential of -60 mV by two-electrode voltage clamp technique. The format is cell-based. To be noted: filed as antagonist.
In series [14] the test system is Oocyte. As to the kind of experiment: Antagonist activity at rat alpha1beta1gamma1delta1 nAChR expressed in Xenopus laevis oocytes assessed as inhibition of ACh puff-induced maximum channel current amplitude at 5 uM measured following irradiation with UV LED light irradiation at holding potential of -60 mV by two-electrode voltage clamp technique. It counts as cell-based.

Series [15] deals with Oocyte. The series can be described thus: Antagonist activity at rat alpha1beta1gamma1delta1 nAChR expressed in Xenopus laevis oocytes assessed as inhibition of ACh puff-induced maximum channel current amplitude at 0.1 to 5 uM measured at holding potential of -60 mV by two-electrode voltage clamp technique. It counts as cell-based. To be noted: filed as antagonist, dose 0.1-5 µM.

In series [16] the target is T2, Neuronal acetylcholine receptor subunit alpha-7. The series can be described thus: Displacement of [125I] alpha bungarotoxin from human neuronal alpha7 nAChR expressed in human SH-SY5Y cell membrane at 10 uM measured after 120 mins by Topcount scintillation counting method. It counts as cell membranes.
The subject of series [17] is Oocyte. As to the kind of experiment: Antagonist activity at rat alpha1beta1gamma1delta1 nAChR expressed in Xenopus laevis oocytes assessed as inhibition of ACh puff-induced maximum channel current amplitude by measuring current fraction ratio measured at holding potential of -60 mV by two-electrode voltage clamp technique. The format is cell-based.
In another series the test system is TE-671. The series can be described thus: Displacement of [125I] alpha bungarotoxin from human muscle type nAChR expressed in human TE-671 cell membrane at 10 uM measured after 120 mins by Topcount scintillation counting method. It counts as cell membranes. The conditions noted are these: filed as antagonist.
Series [18] concerns Oocyte. The series can be described thus: Antagonist activity at rat alpha1beta1gamma1delta1 nAChR expressed in Xenopus laevis oocytes assessed as inhibition of ACh puff-induced maximum channel current amplitude by measuring current fraction ratio using UV LED light irradiated compound measured at holding potential of -60 mV by two-electrode voltage clamp technique. It counts as cell-based.

T1 sequence (P17787 whole entry): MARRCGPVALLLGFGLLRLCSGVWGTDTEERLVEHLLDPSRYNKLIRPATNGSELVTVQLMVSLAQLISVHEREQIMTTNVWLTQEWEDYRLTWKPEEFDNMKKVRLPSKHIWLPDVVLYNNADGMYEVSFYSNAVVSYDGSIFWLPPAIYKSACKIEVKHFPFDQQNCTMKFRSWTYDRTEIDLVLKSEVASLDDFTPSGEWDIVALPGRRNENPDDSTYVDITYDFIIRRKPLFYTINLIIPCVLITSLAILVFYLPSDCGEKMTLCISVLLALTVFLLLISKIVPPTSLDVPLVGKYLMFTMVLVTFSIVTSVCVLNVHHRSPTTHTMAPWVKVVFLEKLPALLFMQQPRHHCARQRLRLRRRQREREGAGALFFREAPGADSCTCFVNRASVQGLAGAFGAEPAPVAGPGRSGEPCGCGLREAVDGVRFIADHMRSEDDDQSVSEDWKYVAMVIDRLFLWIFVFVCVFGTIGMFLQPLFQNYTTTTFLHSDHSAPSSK
T1 sequence (P43681 whole entry): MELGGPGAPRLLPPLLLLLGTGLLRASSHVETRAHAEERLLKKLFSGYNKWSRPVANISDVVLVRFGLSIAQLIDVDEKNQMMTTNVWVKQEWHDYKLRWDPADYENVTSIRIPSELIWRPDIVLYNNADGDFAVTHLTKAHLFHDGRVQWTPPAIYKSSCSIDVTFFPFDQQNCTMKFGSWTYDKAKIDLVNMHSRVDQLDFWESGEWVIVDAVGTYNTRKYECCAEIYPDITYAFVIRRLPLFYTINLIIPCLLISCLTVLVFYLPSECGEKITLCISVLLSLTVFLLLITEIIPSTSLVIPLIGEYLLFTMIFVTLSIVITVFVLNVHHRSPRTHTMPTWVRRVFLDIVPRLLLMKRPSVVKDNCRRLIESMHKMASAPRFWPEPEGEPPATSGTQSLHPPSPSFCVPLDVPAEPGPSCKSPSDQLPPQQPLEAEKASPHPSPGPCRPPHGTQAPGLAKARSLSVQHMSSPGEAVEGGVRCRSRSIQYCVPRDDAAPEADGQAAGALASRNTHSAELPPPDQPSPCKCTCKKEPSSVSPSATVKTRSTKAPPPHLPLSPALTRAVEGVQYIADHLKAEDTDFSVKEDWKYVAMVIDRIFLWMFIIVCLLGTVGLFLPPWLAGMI

Broadly, the Ki is a dissociation constant, usually derived from enzyme kinetics or from competition with a known ligand. For `C[N+]1(Cc2cccc(/N=N\c3cccc(C[N+]4(C)CCCCCC4)c3)c2)CCCCCC1`, the Ki in series [1] was 2600 nM.
The term inhibition denotes the percentage by which the read-out fell short of the control. On to `C[N+]1(Cc2cccc(/N=N/c3cccc(C[N+]4(C)CCCCCC4)c3)c2)CCCCCC1.[I-].[I-]`, for which, in series [2], the inhibition was 29%. The Activity entry with RAW264.7 was “Non-Toxic”. The Ki in series [3] was 1900 nM; in [5] it was 300 nM; in [6], over 10000 nM; in series [8], 220 nM. Besides, the solubility thermodynamic at 24 h in series [4] stood at 5.9 mM. In series [7], the Papp at 4 h is under 1 ×10⁻⁶ cm/s.
Turning to `C[N+]1(Cc2cccc(/N=N/c3cccc(C[N+]4(C)CCCCC4)c3)c2)CCCCC1.[I-].[I-]`, the inhibition result in the series with Oocyte [9] and in the series on Oocyte [14] was “inactive” each time. Further, the inhibition entry with Oocyte [10], with Oocyte [13] and with Oocyte [15] was “Active” in each case. Further, the Ratio Ki in the series listed under Homo sapiens [11] was over 290; in the series filed under Homo sapiens [12] it was 26. In addition, the inhibition in [2] came out at 7%. Moreover, the Activity result in the series with RAW264.7 is recorded as “Non-Toxic”. In addition, the Ki is 910 nM in series [3], 460 nM in series [5], over 10000 nM in series [6] and 35 nM in [8]. In series [4], the solubility thermodynamic at 24 h turned out to be 38.4 mM. The Papp at 4 h in [7] was under 1 ×10⁻⁶ cm/s.
Turning to `C[N+]1(Cc2ccc(/N=N/c3ccc(C[N+]4(C)CCCC4)cc3)cc2)CCCC1.[I-].[I-]`, the inhibition in series [2] (filed as antagonist) was 45%. For the same molecule, the Activity result in the series on RAW264.7 is “Non-Toxic”. The Ki in series [3] is 930 nM; in [6], over 10000 nM; in [8], 200 nM. For the same molecule, the solubility thermodynamic at 24 h in [4] was 14.8 mM. In addition, the Papp at 4 h in series [7] is under 1 ×10⁻⁶ cm/s.
On to `C[N+]1(Cc2cccc(/N=N/c3cccc(C[N+]4(C)CCCC4)c3)c2)CCCC1.[I-].[I-]`, for which the Ratio Ki in the series filed under Homo sapiens [11] was over 240; in the series filed under Homo sapiens [12], 60. The inhibition in series [2] was 31%. Also, the Activity result with RAW264.7 was “Non-Toxic”. The values for the Ki in series [3], in [6] and in [8] were 2500 nM, over 10000 nM and 42 nM, respectively. The solubility thermodynamic at 24 h in series [4] worked out at 36.3 mM. Moreover, the Papp at 4 h in series [7] was under 1 ×10⁻⁶ cm/s.
Molecule `C[N+]1(Cc2ccc(/N=N/c3ccc(C[N+]4(C)CCCCC4)cc3)cc2)CCCCC1.[I-].[I-]` came in with an inhibition in series [16] of 16%. For the same molecule, in the series on RAW264.7, the Activity result is on record as “Non-Toxic”. In addition, the Ki was over 10000 nM in series [3], 1500 nM in series [6] and 1100 nM in series [8]. Further, the solubility thermodynamic at 24 h in series [4] worked out at 34.9 mM. The Papp at 4 h in [7] was under 1 ×10⁻⁶ cm/s.
As to `C[N+]1(Cc2cccc(/N=N/c3cccc(C[N+]4(C)CC=CCC4)c3)c2)CC=CCC1.[I-].[I-]` (centres undefined), the inhibition in [2] was found to be 32%. In addition, in the series with RAW264.7, the Activity entry is recorded as “Non-Toxic”. In addition, the Ki in series [3] is 730 nM; in series [5], 840 nM; in series [6], over 10000 nM; in series [8], 100 nM. Besides, in the series on Oocyte [17], the Ratio was 0.11. In addition, in series [4], the solubility thermodynamic at 24 h is 16.3 mM. For the same molecule, the Papp at 4 h in series [7] was under 1 ×10⁻⁶ cm/s.
With `C[N+]1(Cc2cccc(/N=N/c3ccccc3)c2)CCCCC1.[I-]`, the inhibition is 45% in the series on TE-671, 48% in series [16] (filed as antagonist) and 39% in series [2]. In addition, the Activity result in the series on RAW264.7 is listed as “Non-Toxic”. Besides, the Ki in [3], in series [6] and in [8] was over 10000 nM in each case. Also, the solubility thermodynamic at 24 h in series [4] turned out to be 5.5 mM. In addition, the Papp at 4 h in [7] turned out to be 2 ×10⁻⁶ cm/s.
In the case of `C[N+]1(Cc2cccc(/N=N\c3cccc(C[N+]4(C)CCCCC4)c3)c2)CCCCC1`, the Ki in series [1] is 2600 nM.
Take `C[N+]1(Cc2cccc(/N=N\c3cccc(C[N+]4(C)CC=CCC4)c3)c2)CC=CCC1` (centres undefined): in the series on Oocyte [18], the Ratio is 0.35. For the same molecule, the Ki in series [1] came out at 880 nM.
`Clc1ccc([C@H]2C[C@@H]3CC[C@H]2N3)cn1` [(-)-EPIBATIDINE] showed a Ki in [3] of 120 nM.

Source of the values: ChEMBL document CHEMBL4765337, “Optical control of muscular nicotinic channels with azocuroniums, photoswitchable azobenzenes bearing two N-methyl-N-carbocyclic quaternary ammonium groups” (Eur J Med Chem, 2020).
